Source: PubChem BioAssay AID179 (DTP/NCI, 2004)
Where “and” joins values, the source holds several entries; their conditions need not be identical. Equal entries are not always repeated. Calls of active or inactive are those of the source.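 The calls were made as follows: active = compounds giving half or more protection of infected cells from virus-caused growth loss, again on retest; inactive = the rest.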 Where a SMILES comes first, the peptide text is derived from it. Bridges are numbered along the chain shown (N, C = ends). Roman numbers before positions name the chains, in order.

Test system: CEM cells HIV-1 protection, formazan growth assay
Experiment: NCI AIDS Antiviral Assay
Settings: for IC50: measured here: growth of uninfected CEM cells
In short: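 Category rules: moderately active means at least 50% protection on retest, and confirmed active means 100% protection reproducibly. The underlying data came from a formazan growth assay in HIV-1-infected CEM cells.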

| SMILES | EC50 [µM] | IC50 | outcome |
| --- | --- | --- | --- |
| Cc1cn(C2CCN(c3ccccc3)O2)c(=O)[nH]c1=O (stereo unspecified) | > 200 | > 200 µM | – |
| c1ccc(/N=N/c2ccccn2)nc1 | > 200 | > 200 µM | – |
| C1COC(NC(C2CC2)C2CC2)=N1 | – | – | inactive |
| COC(=O)C(Cl)=C1CC1 | > 1700 | 93.3 µM | – |
| O=P(O)(CN(C1CCCCC1)C1CCCCC1)CN(C1CCCCC1)C1CCCCC1 | 178 | > 200 µM | – |
| CC(C)(C)N1C[C@H](C(=O)c2ccccc2)[C@@H]1c1ccccc1 | > 33.9 | > 33.9 µM | – |
| CCc1cccc(CC)c1NC(=O)C1=CNC(C)=C(C(=O)Nc2c(CC)cccc2CC)C1c1ccc(O)c(OC)c1 (stereo unspecified) | > 63.1 | 49 µM | – |
| COc1cnc([C@H]2CCC3[C@@H]4CC=C5C[C@@H](OC(C)=O)CC[C@]5(C)C4CC[C@@]32C)s1 (stereo partly specified) | > 21.9 | > 21.9 µM | – |
| Cc1cc(C2(c3ccc(O)c(C)c3)OS(=O)(=O)c3ccccc32)ccc1O | – | – | inactive |
| CC(Cc1cccc2c1Nc1ccccc1S2)N(C)CCO (stereo unspecified) | > 200 | 33.9 µM | – |
| O=C(O)C12CC3CC(CC(F)(C3)C1)C2 | > 912 | > 912 µM | – |
| O=C1C=CC=C/C1=C1/SC(c2ccccc2)=C(O)N1c1ccccc1 | – | – | inactive |
| Cc1ncc([N+](=O)[O-])n1CCNCCCn1ccnc1[N+](=O)[O-] | > 200 | > 200 µM | – |
| COC(=O)CCC1=C(C)c2cc3[n-]c(cc4nc(cc5[n-]c(cc1n2)c(CCC(=O)OC)c5C)C(C(C)=O)=C4C)c(C(C)=O)c3C.[Ni+2] | > 100 | > 100 µM | – |
| COc1ccc(CC2NCCc3cc(OC)c(OC)cc32)cc1 (stereo unspecified) | > 794 | 138 µM | – |
| COc1ccc2nc3cc([N+](=O)[O-])ccc3c(NCCO)c2c1 | > 200 | 1.05 µM | – |
| Cc1cccc(Nc2nc(N)nc(N)c2N=O)c1 | > 200 | 20.9 µM | – |
| C/C(=N\N=C(N)N)C(CN(C)C)C(c1ccccc1)c1c(O)c2ccccc2oc1=O (stereo unspecified) | > 40.7 | 17.4 µM | – |
| Cc1cccc(N=Nc2c(C)nn(C(=O)c3ccc(O)cc3)c2C)c1 | – | – | inactive |
| Nn1nc2ccccc2n1 | > 1860 | > 1860 µM | – |
| C[C@@H](NC(=O)[C@@H]1C[C@]1(C)CO)c1cccc2ccccc12 | > 200 | > 200 µM | – |
| NC(=O)c1n[nH]c(C2OC(CO)C(O)C2O)n1 (stereo unspecified) | > 200 | 170 µM | – |
| CN(C)Cc1cc(C(=O)/C=C/c2ccccc2)cc(CN(C)C)c1O | > 200 | 25.1 µM | – |

| SMILES | EC50 [µM] | IC50 | outcome |
| --- | --- | --- | --- |
| COc1cc(-c2oc3ccccc3c(=O)c2O)cc(OC)c1OC | > 200 | 79.4 µM | – |
| COc1ccc(N=NC(=O)NC(Cc2ccccc2)C(=O)O)cc1 (stereo unspecified) | > 200 | 20 µM | – |
| O=C1CC2(C(=O)O1)C1C(=O)OC(=O)C1C1c3ccccc3C=NN12 (stereo unspecified) | > 692 | > 692 µM | – |
| S=c1cc(S)sc2c1c(=S)sc1nc3ccccn3c(=S)c12 | > 9.55 | > 9.55 µM | – |
| CSc1ncnc2c1cnn2CCCCO | > 200 | > 200 µM | – |
| O=C1CCC2=C(CCC2)N1CCc1ccc2c(c1)OCO2 | – | – | inactive |
| Nc1ccc(SCc2ccc(C(=O)O)cc2[N+](=O)[O-])cc1 | > 813 | 339 µM | – |
| CNC(=O)Nc1cc2c3c(c1)CCCN3CCC2 | 135 | 178 µM | – |
| COC1C(O)C(n2ccc(=O)[nH]c2=O)OC1[C@@H](O[C@H]1OC(C(=O)NC2CCCCNC2=O)=CC(O)C1O)C(N)=O (stereo partly specified) | – | – | inactive |
| CCOC(=O)Cc1nc2c(N)ncnc2n1C1OC(COC(C)=O)C(OC(C)=O)C1OC(C)=O (stereo unspecified) | > 200 | > 200 µM | – |
| O=S(=O)(O)C(Cc1nc2ccccc2[nH]1)S(=O)(=O)OCCC1S(=O)(=O)OCCOS1(=O)=O (stereo unspecified) | > 200 | 107 µM | – |
| CCC(C)C(NC(=O)c1ccccc1SC(=O)CCC[n+]1ccccc1)C(N)=O (stereo unspecified) | > 75.9 | 4.79 µM | – |
| Cc1ccncc1.Cc1ccncc1.O=[N+]([O-])[O-].O=[N+]([O-])[O-].[Pt+2] | > 148 | 69.2 µM | – |
| Cc1cc(NCCCCCCNc2cc(C)nc3cc(N(C)C)ccc23)c2ccc(N(C)C)cc2n1 | – | – | inactive |
| CC(=O)/C(=C/c1cccc(Br)c1)C(=O)c1ccccc1 | > 21.9 | 11.2 µM | – |
| CC[N+]12CN3CN(CN(C3)C1)C2 | > 851 | 437 µM | – |
| CN(C)C(=O)NC1(N(C)C)CC1 | > 200 | > 200 µM | – |
| C=C1CN(Cc2ccccc2)[C@@H]2CCCCC[C@H](C#N)[C@H]12 | > 200 | 123 µM | – |
| Nc1ccc(N=Nc2ccc(-c3ccc(O)cc3)cc2)c2ccc(S(=O)(=O)O)cc12 | 7.94 | > 200 µM | – |
| O=C1OC(c2ccc(Cl)cc2)(c2ccc(Cl)cc2)c2c1ccc1ccccc21 | – | – | inactive |
| CCN(CC)CC(=O)NC1c2ccccc2Oc2c(C)cccc21 (stereo unspecified) | > 288 | 145 µM | – |
| C=CCNC(=S)NNC(=O)c1c(C)nc2sccn12 | > 851 | 813 µM | – |
| c1ccc2c(c1)cc(C1NCCc3[nH]cnc31)c1ccccc12 (stereo unspecified) | > 24 | 15.1 µM | – |

| SMILES | EC50 [µM] | IC50 | outcome |
| --- | --- | --- | --- |
| C/C(CCn1[nH]c(=O)ccc1=O)=N\NC(=O)C(=O)NN | > 1.95 | > 1.95 µM | – |
| CCOC(=O)/C=C1\CCC(C)n2c1nccc2=O (stereo unspecified) | > 200 | 110 µM | – |
| CCN(CC)CCNC(=O)c1ccc(I)cc1 | > 200 | > 200 µM | – |
| O=[N+]([O-])c1cc2ccc(N(CCO)CCO)nc2nc1N(CCO)CCO | > 200 | > 200 µM | – |
| CCCCCCCCCCCCCCCCOCC(CCl)OP(=O)(O)OP(=O)(O)OCC1OC(n2ccc(N)nc2=O)C(O)C1O (stereo unspecified) | > 200 | 170 µM | – |
| CC1CN=C(N(C(=O)Nc2ccccc2)C2CCCCC2)S1 (stereo unspecified) | – | – | inactive |
| CC1CCOn2c1nc1ccccc1c2=O (stereo unspecified) | > 33.1 | > 33.1 µM | – |
| Cc1cn(C2CCCCC2O)c(=O)[nH]c1=O (stereo unspecified) | > 302 | > 302 µM | – |
| COC(=O)CCC(=O)c1ccc2c(c1)CCC2 | > 200 | > 200 µM | – |
| CC1(C)CC2(C)CC1CC2(O)c1ccccc1 (stereo unspecified) | > 219 | 61.7 µM | – |
| Nc1ccc2cc3ccc(N)cc3nc2c1 | > 200 | 1.12 µM and 0.692 µM | – |
| Cc1cccc(NC(=S)Nc2ccc(Cl)cc2)n1 | > 200 | > 200 µM | – |
| N#Cc1nc(C2OC(COC(=O)c3ccccc3)C(OC(=O)c3ccccc3)C2OC(=O)c2ccccc2)oc1N (stereo unspecified) | > 18.2 | 9.77 µM | – |
| CN(C(=O)c1cccs1)C(=S)N1CCN(c2ccccn2)CC1 | > 195 | 110 µM | – |
| COc1ccc(/C=C2/C(=O)N(C(=O)c3ccccc3O)N=C2C)cc1OC | > 70.8 | 0.145 µM | – |
| CCOC(=O)C(N=C(c1ccccc1)c1ccccc1)N(C(=O)OC(C)(C)C)C(=O)OC(C)(C)C (stereo unspecified) | – | – | inactive |
| O=C(CC(C(=O)c1ccsc1)c1cccs1)c1cccs1 (stereo unspecified) | > 21.9 | > 21.9 µM | – |
| COC(=O)C(N)CSCc1ccccc1 (stereo unspecified) | > 692 | 589 µM | – |
| O=C1CNc2cc(N3CCOCC3)ccc2N1 | > 200 | 28.2 µM | – |
| O=S1(=O)OCCOS(=O)(=O)C1Cl | > 1050 | 178 µM | – |
| CC1OC(OC2C(CO)OC(O[C@H]3CC[C@@]4(C)C(=CC[C@H]5[C@@H]6C[C@@H]7O[C@](O)(CC[C@H](CO)COC8OC(CO)C(O)C(O)C8O)[C@@H](C)[C@@H]7[C@@]6(C)CC[C@@H]54)C3)C(OC3OC(C)C(O)C(O)C3O)C2O)C(O)C(O)C1O (stereo partly specified) | > 200 | > 200 µM | – |
| CCOC(=O)c1c(-c2cc(OC)c(OC)c(OC)c2)csc1N | > 200 | 12 µM | – |
| COc1ccc(N2C(=O)C3c4[nH]c5ccccc5c4C4CCCCCCCCCCC4C3C2=O)cc1 (stereo unspecified) | > 5.62 | > 5.62 µM | – |

| SMILES | EC50 [µM] | IC50 | outcome |
| --- | --- | --- | --- |
| O=c1c2cc(S(=O)(=O)Nc3ccccc3Cl)ccc2ncn1NS(=O)(=O)c1ccc(Br)cc1 | – | – | inactive |
| O=[N+]([O-])c1ccc(C2=NOC3COC4C=CC=CC4OCC23)cc1 (stereo unspecified) | > 30.2 | > 30.2 µM | – |
| COC(=O)C1CC(Sc2ccccc2)C(=O)C(C(=O)OC)C1 (stereo unspecified) | > 112 | 77.6 µM | – |
| O=c1cc(CCl)n2cnc3c(ncn3C3OC(CO)C(O)C3O)c2n1 (stereo unspecified) | – | – | inactive |
| OC1CN2CC[C@H](O)C2C(O)[C@@H]1O (stereo partly specified) | 61.7 | 1320 µM | – |
| O=[N+]([O-])c1ccccc1S(=O)(=O)Oc1ccccc1 | > 77.6 | 47.9 µM | – |
| CCOC(=O)C(Cc1ccc(O)cc1)NC(=O)C(N)CSSCC(N)C(=O)NC(Cc1ccc(O)cc1)C(=O)OCC (stereo not drawn) (I: H-Cys-Tyr-OEt / II: H-Cys-Tyr-OEt; disulfide I:1-II:1; configuration not given here) | > 200 | > 200 µM | – |
| CC1=C(C(=O)CC(=O)C(=O)Nc2ccccc2C)Sc2ccccc2N1 | > 19.5 | > 19.5 µM | – |
| Cc1ccc(/C(O)=C/c2nc3ccccc3nc2NC23CC4CC(CC(C4)C2)C3)cc1 | > 200 | > 200 µM | – |
| CCOC(CN(C)C(=O)Nc1ccc(Cl)c(Cl)c1)OCC | > 200 | 14.8 µM | – |
| CCc1cc2c(cc1C(=O)CCC(=O)O)CC1(C2)Cc2cc(CC)c(C(=O)CCC(=O)O)cc2C1 | > 200 | 107 µM | – |
| O=c1c(O)c(-c2ccccc2)n(O)c2ccc(Cl)cc12 | > 18.2 | > 18.2 µM | – |
| CSc1nc(-c2ccccc2)nc(=[N+]2CCOCC2)s1 | > 417 | 234 µM | – |
| CN(C)CCOC1(CC2CCCCC2)CCC(C(C)(C)C)CC1 (stereo unspecified) | > 200 | 8.13 µM | – |
| COC(=O)c1cccc2cccc(C(=O)Nc3ccc(Cl)cc3)c12 | > 11.2 | > 11.2 µM | – |
| C=CC[P@]1(=O)O[C@H](c2ccccc2)C(C)N1C(C)C (stereo partly specified) | – | – | inactive |
| N#CC(C#N)=C1NN=C(Cl)c2ccccc21 | – | – | inactive |
| NC1=NC(=O)C(c2ccccc2)S1 (stereo unspecified) | > 676 | > 676 µM | – |
| N=c1c2c3n(c4c(=O)n(-c5ccccc5)c(=S)n(c(=O)n1-c1ccccc1)c24)CCCCC3 | > 100 | > 100 µM | – |
| CCN(CC)CCCC(C)Nc1cc(-c2ccccc2)nc2ccccc12 (stereo unspecified) | > 17.8 | 7.76 µM | – |
| CNc1nc(=O)c(C#N)c(-c2ccc(C)cc2)s1 | 166 | > 200 µM | – |
